Measured values: patent publication US8062671B2, “Oily skin preparation for external use” (Shiseido Co., Ltd., priority 2003, dated 2011)

Each compound was assayed against urokinase (UK) (Homo sapiens, UniProt P00749) (assay: Measuring method of UK blocking rate (S2444 substrate, absorbance 405 nm)). Settings: ion concentration 100 ppm; Tris-HCl buffer pH7.5.
Format: biochemical
Method: About the complex powder of this invention, zinc oxide elutes zinc ion and inactivates plasminogen activator. UK is a kind of plasminogen activator. Measuring method of UK blocking rate. […] Thereafter, 20 μL of 12% trichloroacetic acid solution is added to stop the reaction, and powder is filtered. Absorbance of the filtrate at 405 nm is measured to obtain UK activity in an assessment system and UK blocking rate of the sample is calculated.
With `[Al+3]` [Al^3+] the “UK blocking rate (%)” value was 16%. With `[Ba+2]` [Ba^2+] the “UK blocking rate (%)” value was 0%. In the case of `[Ca+2]` [Ca^2+], the “UK blocking rate (%)” value is reported as 0%. `[Ce+3]` [Ce^3+] was tested, and the “UK blocking rate (%)” value was 5%. With `[Co+2]` [Co^2+] the “UK blocking rate (%)” value was 27%. For `[Cu+2]` [Cu^2+], the “UK blocking rate (%)” value was 36%. For `[K+]` [K^+], the “UK blocking rate (%)” value was 0%. For `[Li+]` [Li^+], the “UK blocking rate (%)” value was 0%. `[Mg+2]` [Mg^2+] was tested, and the “UK blocking rate (%)” value was 0%. `[Mn+2]` [Mn^2+] was tested, and the “UK blocking rate (%)” value was 0%. For `[Na+]` [Na^+], the “UK blocking rate (%)” value was 0%. In the case of `[Ni+2]` [Ni^2+], the “UK blocking rate (%)” value is reported as 30%. In the case of `[Zn+2]` [Zn^2+, zinc ion], the “UK blocking rate (%)” value is reported as 52%. In the case of `[Zr+4]` [Zr^4+], the “UK blocking rate (%)” value is reported as 45%.
